{
  "source": "paper PMC8003796",
  "about": "“Identification of Anti-Severe Acute Respiratory Syndrome-Related Coronavirus 2 (SARS-CoV-2) Oxysterol Derivatives In Vitro” (International Journal of Molecular Sciences, 2021)",
  "key": {"SARS-CoV-2 [1]": {"test_system": "SARS-CoV-2", "assay": "SARS-CoV-2 infection assay, viral RNA in culture supernatant by real-time RT-PCR", "type": "cell-based, SARS-CoV-2 Wk-521 strain", "conditions": "for IC90: Severe acute respiratory syndrome coronavirus 2, read-out: IC90 (90% maximal inhibitory concentration); for IC90 / IC50: viral RNA in culture supernatant, VeroE6/TMPRSS2 cells; for IC50: Severe acute respiratory syndrome coronavirus 2, read-out: IC50 (50% maximal inhibitory concentration); for reduction of the production of viral RNA as compared to control: natural oxysterols; for effect on viral RNA level (in words): semi-synthetic oxysterols, up to 15 μM"}, "SARS-CoV-2 [2]": {"test_system": "SARS-CoV-2", "assay": "Virus-induced cytopathic effect (CPE) viewed under a microscope", "type": "cell-based, SARS-CoV-2 Wk-521 strain", "conditions": "48 h post-inoculation; 10 μM RDV, 30 μM cholesterol, 30 μM 7-KC, 10 μM Oxy133, 10 μM Oxy210"}, "SARS-CoV-2 [3]": {"test_system": "SARS-CoV-2", "assay": "Viral N protein by indirect immunofluorescence", "type": "cell-based, SARS-CoV-2 Wk-521 strain", "conditions": "10 μM RDV, 30 μM cholesterol, 30 μM 7-KC, 10 μM Oxy133, 10 μM Oxy210"}, "in vitro": {"assay": "in vitro", "conditions": "African green monkey"}, "TGFβ signaling": {"test_system": "TGFβ signaling", "assay": "TGFβ activity, CTGF mRNA in NIH3T3 cells", "type": "cell-based", "conditions": "10 μM, NIH3T3 cells stimulated with 20 ng/mL TGFβ", "description": "(§1) Scale bar, 100 μm. (B) Viral N protein in the cells was detected by immunofluorescence analysis as described in Figure 1C. Scale bar, 50 μm. (C) Dose-response curves for viral RNA upon treatment with oxysterol derivatives as indicated. The secreted viral RNA in the culture supernatant at 24 h post-inoculation was quantified by real-time RT-PCR and plotted against compound concentration. The chemical structures of oxysterols are also shown above the graphs. (D) Viability of cells treated with the compounds was quantified using an MTT assay. (E,F) Inhibitory effects toward transforming growth factor β (TGFβ) and hedgehog (Hh) signaling. […] Cellular mRNAs were extracted to quantify a TGFβ-downstream gene, connective tissue growth factor (CTGF) (E), a Hh target gene, Gli1 (F), and Oaz1 for normalization of CTGF and Gli1 (E,F).\n(§2) TGFβ activity was examined with NIH3T3 cells precultured with DMEM containing 0.1% bovine calf serum (BCS) overnight. NIH3T3 cells were pretreated with the compounds for 2 h and then stimulated with TGFβ1 (20 ng/mL) in the presence or absence of compounds. After 48 h, RNA was extracted from the cells and analyzed for quantifying the mRNA for a TGFβ target gene, connective tissue growth factor (CTGF), and Oaz1 for normalization. […] Cellular RNA was extracted and analyzed for the expression of a Hh target gene, Gli1, and normalized to Oaz1 expression."}, "Hh signaling": {"test_system": "Hh signaling", "assay": "Hedgehog activity, Gli1 mRNA in NIH3T3 cells", "type": "cell-based", "conditions": "10 μM, CAPAN-1 conditioned medium containing Shh", "description": "as §1, §2"}, "VeroE6/TMPRSS2 cells": {"test_system": "VeroE6/TMPRSS2 cells", "assay": "Cell viability by MTT assay", "conditions": "up to 15 μM"}, "hepatitis C virus (HCV)": {"test_system": "hepatitis C virus (HCV)", "assay": "HCV replication assay, luciferase in LucNeo#2 replicon cells", "type": "cell-based, HCV NN strain (genotype-1b)", "conditions": "10 μM Oxy210, 1 μM sofosbuvir, 48 h", "description": "N, nucleus; M, mitochondria; *, double-membrane vesicle.\nHCV replication activity was measured using LucNeo#2 cells, carrying a subgenomic replicon RNA for an HCV NN strain (genotype-1b) and the luciferase gene driven by the HCV replication. LucNeo#2 cells were treated with the compounds indicated in Figure 3C for 48 h, and the luciferase activity was measured with Luciferase Assay System kit (Promega, Madison, WI, USA)."}, "[4]": {"conditions": "concentrations up to 30 μM, 24 h post-inoculation"}},
  "note": "Several values for one entry are separate records, joined by “and”; a condition that tells them apart may be missing. Identical values can stand only once.",
  "data": [
    {"compound": "CC(C)CCC[C@@H](C)[C@H]1CC[C@H]2[C@@H]3C(=O)C=C4C[C@@H](O)CC[C@]4(C)[C@H]3CC[C@]12C", "note": "[7-KC, 7-ketocholesterol]", "values": [
      {"measurement": "IC90", "setting": "SARS-CoV-2 [1]; 24 h post-inoculation", "result": "> 30", "unit": "µM"},
      {"measurement": "IC50", "setting": "SARS-CoV-2 [1]; 24 h post-inoculation", "result": 14.5, "unit": "µM"},
      {"measurement": "reduction of the production of viral RNA as compared to control", "setting": "SARS-CoV-2 [1]; [4]", "result": "80%–86%"},
      {"measurement": "effect on SARS-CoV-2-induced CPE (in words)", "setting": "SARS-CoV-2 [2]", "result": "reduced the SARS-CoV-2-induced CPE"},
      {"measurement": "effect on virus propagation / spread of infection, N protein (in words)", "setting": "SARS-CoV-2 [3]", "result": "reduced"},
      {"measurement": "CC50", "setting": "in vitro", "result": "> 30", "unit": "µM"}
    ]},
    {"compound": "NC(=O)c1ccc(-c2nc(-c3ccc4c(c3)OCO4)c(-c3ccccn3)[nH]2)cc1", "note": "[SB431542, reference compound]", "values": [
      {"measurement": "effect of pathway inhibitors on viral RNA (in words)", "setting": "SARS-CoV-2 [1]; 10 μM, 24 h post-inoculation", "result": "did not significantly inhibit the production of viral RNA"}
    ]},
    {"compound": "C[C@@H](CO)CCC[C@@H](C)[C@H]1CC[C@H]2[C@@H]3CC=C4C[C@@H](O)CC[C@]4(C)[C@H]3CC[C@]12C", "note": "[27-OHC, 27-hydroxycholesterol]", "values": [
      {"measurement": "IC90", "setting": "SARS-CoV-2 [1]; 24 h post-inoculation", "result": "> 30", "unit": "µM"},
      {"measurement": "IC50", "setting": "SARS-CoV-2 [1]; 24 h post-inoculation", "result": 3.5, "unit": "µM"},
      {"measurement": "reduction of the production of viral RNA as compared to control", "setting": "SARS-CoV-2 [1]; [4]", "result": "80%–86%"},
      {"measurement": "CC50", "setting": "in vitro", "result": "> 30", "unit": "µM"}
    ]},
    {"compound": "CC[C@@](O)(CCc1cccnc1)[C@H]1CC[C@H]2[C@@H]3CC[C@H]4C[C@@H](O)CC[C@]4(C)[C@H]3CC[C@]12C", "note": "[Oxy232]", "values": [
      {"measurement": "reduction of viral replication", "setting": "SARS-CoV-2 [1]; 10 μM", "result": "more than 90%"},
      {"measurement": "reduction of viral RNA production", "setting": "SARS-CoV-2 [1]; 15 μM, 24 h post-inoculation", "result": "99.9% and > 99%"},
      {"measurement": "IC90", "setting": "SARS-CoV-2 [1]; 24 h post-inoculation", "result": 7.8, "unit": "µM"},
      {"measurement": "IC50", "setting": "SARS-CoV-2 [1]; 24 h post-inoculation", "result": 5.4, "unit": "µM"},
      {"measurement": "effect on viral RNA level (in words)", "setting": "SARS-CoV-2 [1]; 24 h post-inoculation", "result": "reduced viral RNA level in a dose-dependent manner"},
      {"measurement": "inhibition of TGFβ signaling (CTGF mRNA, in words)", "setting": "TGFβ signaling", "result": "devoid of significant TGFβ inhibitory properties"},
      {"measurement": "inhibition of Hh signaling (Gli1 mRNA, in words)", "setting": "Hh signaling", "result": "retains inhibitory activity toward Hh signaling"},
      {"measurement": "CC50", "setting": "in vitro", "result": "> 15", "unit": "µM"},
      {"measurement": "cytotoxicity / cell viability (in words)", "setting": "VeroE6/TMPRSS2 cells", "result": "slightly reduced cell viability when used at concentrations above 10 μM"}
    ]},
    {"compound": "CS(=O)(=O)c1ccc(C(=O)Nc2ccc(Cl)c(-c3ccccn3)c2)c(Cl)c1", "note": "[GDC0449, reference compound]", "values": [
      {"measurement": "effect of pathway inhibitors on viral RNA (in words)", "setting": "SARS-CoV-2 [1]; 10 μM, 24 h post-inoculation", "result": "did not decrease the viral RNA levels"}
    ]},
    {"compound": "CC(C)OC(=O)[C@H](C)N[P@](=O)(OC[C@H]1O[C@@H](n2ccc(=O)[nH]c2=O)[C@](C)(F)[C@@H]1O)Oc1ccccc1", "note": "[sofosbuvir, reference compound]", "values": [
      {"measurement": "HCV replication, luciferase activity (in words)", "setting": "hepatitis C virus (HCV)", "result": "positive control"}
    ]},
    {"compound": "C[C@]12CC[C@H](O)C[C@@H]1CC[C@@H]1[C@@H]2CC[C@@]2(C)[C@H]1CC[C@@H]2[C@](C)(O)CCc1ccc(F)cc1", "note": "[Oxy186]", "values": [
      {"measurement": "maximum reduction in viral RNA as compared to control", "setting": "SARS-CoV-2 [1]; 12 μM, 24 h post-inoculation", "result": 83, "unit": "%"},
      {"measurement": "IC90", "setting": "SARS-CoV-2 [1]; 24 h post-inoculation", "result": "> 15", "unit": "µM"},
      {"measurement": "IC50", "setting": "SARS-CoV-2 [1]; 24 h post-inoculation", "result": 7.4, "unit": "µM"},
      {"measurement": "effect on viral RNA level (in words)", "setting": "SARS-CoV-2 [1]; 24 h post-inoculation", "result": "reduced viral RNA level in a dose-dependent manner"},
      {"measurement": "CC50", "setting": "in vitro", "result": "> 15", "unit": "µM"},
      {"measurement": "cytotoxicity / cell viability (in words)", "setting": "VeroE6/TMPRSS2 cells", "result": "No significant cytotoxicity"}
    ]},
    {"compound": "CC(C)CCC[C@@H](C)[C@H]1CC[C@H]2[C@@H]3CC=C4[C@@H](O)[C@@H](O)CC[C@]4(C)[C@H]3CC[C@]12C", "note": "[4-beta-OHC, 4beta-hydroxycholesterol]", "values": [
      {"measurement": "IC90", "setting": "SARS-CoV-2 [1]; 24 h post-inoculation", "result": "> 30", "unit": "µM"},
      {"measurement": "IC50", "setting": "SARS-CoV-2 [1]; 24 h post-inoculation", "result": "> 30", "unit": "µM"},
      {"measurement": "effect on viral RNA (in words)", "setting": "SARS-CoV-2 [1]; [4]", "result": "did not show apparent reductions in viral RNA"},
      {"measurement": "CC50", "setting": "in vitro", "result": "> 30", "unit": "µM"}
    ]}
  ]
}
